Assay results as given in ChEMBL document CHEMBL5465560, “Selectivity Literature for EUbOPEN Chemogenomic Library” (2024).
One block for each molecule: values may come before it.

Tests used:
[1] = molecular target: CDK3/cyclin E (Homo sapiens) (UniProt P24864+O96020+Q00526); experiment: Selectivity interaction (Upstate Kinase Profiler service (Millipore)) EUB0000056c CDK3; type: protein-complex assay; conditions: at 1 µM
[2] = molecular target: Tyrosine-protein kinase HCK (Homo sapiens) (UniProt P08631); experiment: Selectivity interaction (Kinase panel (Invitrogen)) EUB0000639a HCK; conditions: at 200 nM
Tyrosine-protein kinase HCK (Homo sapiens), sequence (P08631 2-526 limits assumed): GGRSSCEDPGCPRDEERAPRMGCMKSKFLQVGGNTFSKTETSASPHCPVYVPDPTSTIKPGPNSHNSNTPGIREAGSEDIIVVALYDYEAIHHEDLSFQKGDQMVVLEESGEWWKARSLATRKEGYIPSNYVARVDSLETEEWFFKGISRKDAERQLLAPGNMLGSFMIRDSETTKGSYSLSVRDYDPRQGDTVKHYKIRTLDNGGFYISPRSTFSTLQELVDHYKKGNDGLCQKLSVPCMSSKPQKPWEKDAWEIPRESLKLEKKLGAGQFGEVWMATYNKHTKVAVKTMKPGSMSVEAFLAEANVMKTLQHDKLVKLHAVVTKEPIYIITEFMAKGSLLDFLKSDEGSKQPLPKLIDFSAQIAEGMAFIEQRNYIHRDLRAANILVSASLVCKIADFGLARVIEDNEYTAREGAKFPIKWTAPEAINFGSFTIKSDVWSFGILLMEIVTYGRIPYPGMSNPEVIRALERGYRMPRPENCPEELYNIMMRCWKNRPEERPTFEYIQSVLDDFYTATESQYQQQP

[3] = molecular target: Bromodomain-containing protein 3 (Homo sapiens) (UniProt Q15059); experiment: Selectivity interaction (Bromodomain panel (DSF asssay)) EUB0000270b BRD3
Bromodomain-containing protein 3 (Homo sapiens), sequence (Q15059 2-726 limits assumed): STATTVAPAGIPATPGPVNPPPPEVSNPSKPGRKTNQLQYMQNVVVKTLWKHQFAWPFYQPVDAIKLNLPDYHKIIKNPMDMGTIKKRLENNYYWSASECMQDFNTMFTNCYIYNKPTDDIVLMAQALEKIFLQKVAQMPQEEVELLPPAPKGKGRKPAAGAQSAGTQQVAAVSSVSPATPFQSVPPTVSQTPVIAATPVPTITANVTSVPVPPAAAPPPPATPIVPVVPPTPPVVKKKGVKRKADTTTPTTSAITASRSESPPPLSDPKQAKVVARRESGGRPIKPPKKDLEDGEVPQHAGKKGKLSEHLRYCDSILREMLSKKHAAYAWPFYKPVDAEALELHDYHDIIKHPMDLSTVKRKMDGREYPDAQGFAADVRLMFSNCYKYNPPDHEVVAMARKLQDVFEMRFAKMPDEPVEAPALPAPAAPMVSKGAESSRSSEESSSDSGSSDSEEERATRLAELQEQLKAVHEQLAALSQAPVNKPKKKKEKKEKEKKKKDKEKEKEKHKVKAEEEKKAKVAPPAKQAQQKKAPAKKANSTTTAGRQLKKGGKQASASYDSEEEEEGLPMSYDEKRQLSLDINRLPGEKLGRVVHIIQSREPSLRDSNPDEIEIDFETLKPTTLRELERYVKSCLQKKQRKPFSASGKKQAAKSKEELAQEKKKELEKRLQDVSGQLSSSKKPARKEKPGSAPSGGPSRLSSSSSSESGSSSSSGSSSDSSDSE

[4] = molecular target: T1, Cyclin-G-associated kinase (Homo sapiens) (UniProt O14976); experiment: Selectivity interaction (KinomeScan (DiscoverX)) EUB0000229b GAK; conditions: at 10 µM
T1 sequence (whole entry): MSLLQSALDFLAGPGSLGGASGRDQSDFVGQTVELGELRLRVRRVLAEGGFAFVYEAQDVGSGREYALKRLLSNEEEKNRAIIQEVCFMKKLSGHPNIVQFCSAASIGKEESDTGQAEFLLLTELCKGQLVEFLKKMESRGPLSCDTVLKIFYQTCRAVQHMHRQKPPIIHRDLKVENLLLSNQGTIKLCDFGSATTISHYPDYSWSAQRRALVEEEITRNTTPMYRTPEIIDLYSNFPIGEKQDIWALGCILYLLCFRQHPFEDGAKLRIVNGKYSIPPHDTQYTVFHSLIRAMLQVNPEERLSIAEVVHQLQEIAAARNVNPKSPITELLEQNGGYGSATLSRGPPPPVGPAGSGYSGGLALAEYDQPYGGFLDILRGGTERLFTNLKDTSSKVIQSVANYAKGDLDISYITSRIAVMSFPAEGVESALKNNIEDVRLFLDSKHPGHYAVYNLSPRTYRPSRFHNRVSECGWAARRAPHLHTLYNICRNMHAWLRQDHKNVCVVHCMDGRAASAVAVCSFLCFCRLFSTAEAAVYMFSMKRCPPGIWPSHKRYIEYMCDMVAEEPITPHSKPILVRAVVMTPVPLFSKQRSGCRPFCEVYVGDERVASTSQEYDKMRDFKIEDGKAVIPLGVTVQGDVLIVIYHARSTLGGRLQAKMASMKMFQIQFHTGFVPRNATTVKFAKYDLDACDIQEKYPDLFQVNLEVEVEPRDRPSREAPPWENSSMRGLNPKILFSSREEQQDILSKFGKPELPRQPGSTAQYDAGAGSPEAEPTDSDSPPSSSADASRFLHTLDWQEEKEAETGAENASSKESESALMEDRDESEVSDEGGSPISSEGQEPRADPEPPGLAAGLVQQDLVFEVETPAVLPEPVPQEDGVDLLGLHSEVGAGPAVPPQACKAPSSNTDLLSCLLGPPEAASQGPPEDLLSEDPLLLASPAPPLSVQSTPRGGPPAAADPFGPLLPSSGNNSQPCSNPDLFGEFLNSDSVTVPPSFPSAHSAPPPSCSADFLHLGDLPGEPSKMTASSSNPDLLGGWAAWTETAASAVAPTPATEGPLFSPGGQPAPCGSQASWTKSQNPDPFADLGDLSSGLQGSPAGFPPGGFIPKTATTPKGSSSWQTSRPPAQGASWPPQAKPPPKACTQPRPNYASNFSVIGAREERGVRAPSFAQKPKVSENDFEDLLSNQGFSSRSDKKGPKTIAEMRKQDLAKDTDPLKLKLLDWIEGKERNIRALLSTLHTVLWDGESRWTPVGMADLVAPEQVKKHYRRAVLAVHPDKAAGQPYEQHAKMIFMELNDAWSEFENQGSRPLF

[5] = molecular target: T2, Dual specificity tyrosine-phosphorylation-regulated kinase 2 (Homo sapiens, UniProt Q92630); experiment: Selectivity interaction (Enzymatic assay (Eurofins)) EUB0001049a DYRK2
T2 sequence (Q92630 whole entry): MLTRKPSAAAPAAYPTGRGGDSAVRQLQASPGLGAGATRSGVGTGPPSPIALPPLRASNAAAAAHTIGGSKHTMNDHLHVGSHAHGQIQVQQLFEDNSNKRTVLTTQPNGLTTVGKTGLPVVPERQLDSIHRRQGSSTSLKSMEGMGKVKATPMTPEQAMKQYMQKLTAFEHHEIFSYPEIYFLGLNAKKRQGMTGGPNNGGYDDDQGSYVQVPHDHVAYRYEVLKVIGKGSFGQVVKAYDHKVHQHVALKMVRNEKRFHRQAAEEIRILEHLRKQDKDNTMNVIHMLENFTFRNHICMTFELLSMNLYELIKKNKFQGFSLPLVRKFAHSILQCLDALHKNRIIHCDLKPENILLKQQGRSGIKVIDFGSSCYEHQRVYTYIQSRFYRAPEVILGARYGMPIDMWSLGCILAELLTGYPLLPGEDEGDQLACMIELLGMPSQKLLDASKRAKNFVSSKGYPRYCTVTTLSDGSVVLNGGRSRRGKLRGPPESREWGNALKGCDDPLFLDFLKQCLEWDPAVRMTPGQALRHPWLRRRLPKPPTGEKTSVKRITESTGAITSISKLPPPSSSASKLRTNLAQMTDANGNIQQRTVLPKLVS

[6] = molecular target: Serine/threonine-protein kinase PAK 6 (Homo sapiens) (UniProt Q9NQU5); experiment: Selectivity interaction (KinomeScan (DiscoverX)) EUB0001049a PAK6; conditions: at 1 µM
Serine/threonine-protein kinase PAK 6 (Homo sapiens), sequence (Q9NQU5 whole entry, looked up): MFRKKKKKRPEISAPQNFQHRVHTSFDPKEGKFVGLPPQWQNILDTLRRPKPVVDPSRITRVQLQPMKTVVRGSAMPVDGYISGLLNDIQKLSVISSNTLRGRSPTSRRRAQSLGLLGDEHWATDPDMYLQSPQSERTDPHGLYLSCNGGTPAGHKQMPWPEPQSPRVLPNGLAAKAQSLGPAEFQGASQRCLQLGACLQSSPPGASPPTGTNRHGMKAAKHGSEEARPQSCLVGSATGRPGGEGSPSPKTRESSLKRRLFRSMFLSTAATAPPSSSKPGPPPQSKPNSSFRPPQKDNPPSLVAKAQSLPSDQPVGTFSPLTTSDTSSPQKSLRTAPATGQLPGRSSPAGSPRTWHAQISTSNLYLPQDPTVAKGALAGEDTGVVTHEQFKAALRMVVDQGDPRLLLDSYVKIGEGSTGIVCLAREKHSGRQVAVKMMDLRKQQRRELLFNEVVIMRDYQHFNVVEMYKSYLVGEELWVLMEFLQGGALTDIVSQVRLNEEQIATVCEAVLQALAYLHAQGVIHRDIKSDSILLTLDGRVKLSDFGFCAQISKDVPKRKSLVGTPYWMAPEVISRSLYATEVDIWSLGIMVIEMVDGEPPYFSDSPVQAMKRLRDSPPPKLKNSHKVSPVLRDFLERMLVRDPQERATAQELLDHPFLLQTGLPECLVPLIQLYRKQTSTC

[7] = molecular target: T3, Receptor-interacting serine/threonine-protein kinase 4 (Homo sapiens) (UniProt P57078); experiment: Selectivity interaction (KinomeScan (DiscoverX)) EUB0000666a RIPK4; conditions: at 10 µM
T3 sequence (whole entry): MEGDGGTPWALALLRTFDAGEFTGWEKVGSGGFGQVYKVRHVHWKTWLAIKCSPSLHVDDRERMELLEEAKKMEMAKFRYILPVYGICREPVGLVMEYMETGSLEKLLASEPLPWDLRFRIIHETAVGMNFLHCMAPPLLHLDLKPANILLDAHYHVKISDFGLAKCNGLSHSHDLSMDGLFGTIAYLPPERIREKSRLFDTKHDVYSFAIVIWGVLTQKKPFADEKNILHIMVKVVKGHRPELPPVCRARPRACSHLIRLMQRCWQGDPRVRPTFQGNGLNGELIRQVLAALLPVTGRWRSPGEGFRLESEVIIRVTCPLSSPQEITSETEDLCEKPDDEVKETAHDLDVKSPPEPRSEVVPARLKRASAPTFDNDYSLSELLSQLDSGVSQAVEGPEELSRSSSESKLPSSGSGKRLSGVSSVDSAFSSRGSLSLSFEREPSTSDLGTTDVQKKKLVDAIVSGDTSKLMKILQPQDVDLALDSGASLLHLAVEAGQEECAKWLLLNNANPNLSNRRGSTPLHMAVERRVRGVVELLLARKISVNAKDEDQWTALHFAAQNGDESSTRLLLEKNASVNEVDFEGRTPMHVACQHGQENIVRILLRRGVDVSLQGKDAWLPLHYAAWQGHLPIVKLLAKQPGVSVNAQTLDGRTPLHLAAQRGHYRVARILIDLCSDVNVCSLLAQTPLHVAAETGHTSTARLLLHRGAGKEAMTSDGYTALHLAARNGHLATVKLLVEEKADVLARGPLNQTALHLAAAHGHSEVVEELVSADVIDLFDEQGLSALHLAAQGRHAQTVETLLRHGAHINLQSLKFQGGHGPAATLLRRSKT

CDK3/cyclin E (Homo sapiens), sequence (O96020 whole entry, looked up): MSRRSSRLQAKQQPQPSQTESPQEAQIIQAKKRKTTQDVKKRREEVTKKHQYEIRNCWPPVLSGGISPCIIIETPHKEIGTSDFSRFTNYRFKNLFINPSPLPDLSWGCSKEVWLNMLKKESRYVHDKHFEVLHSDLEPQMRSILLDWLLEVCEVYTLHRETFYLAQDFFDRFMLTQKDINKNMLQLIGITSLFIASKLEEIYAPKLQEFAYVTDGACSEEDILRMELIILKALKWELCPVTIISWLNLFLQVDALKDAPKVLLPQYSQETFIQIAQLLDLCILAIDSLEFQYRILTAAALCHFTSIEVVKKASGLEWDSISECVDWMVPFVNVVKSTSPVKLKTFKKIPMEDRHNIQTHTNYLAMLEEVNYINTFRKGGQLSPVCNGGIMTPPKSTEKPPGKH
CDK3/cyclin E (Homo sapiens), sequence (P24864 whole entry, looked up): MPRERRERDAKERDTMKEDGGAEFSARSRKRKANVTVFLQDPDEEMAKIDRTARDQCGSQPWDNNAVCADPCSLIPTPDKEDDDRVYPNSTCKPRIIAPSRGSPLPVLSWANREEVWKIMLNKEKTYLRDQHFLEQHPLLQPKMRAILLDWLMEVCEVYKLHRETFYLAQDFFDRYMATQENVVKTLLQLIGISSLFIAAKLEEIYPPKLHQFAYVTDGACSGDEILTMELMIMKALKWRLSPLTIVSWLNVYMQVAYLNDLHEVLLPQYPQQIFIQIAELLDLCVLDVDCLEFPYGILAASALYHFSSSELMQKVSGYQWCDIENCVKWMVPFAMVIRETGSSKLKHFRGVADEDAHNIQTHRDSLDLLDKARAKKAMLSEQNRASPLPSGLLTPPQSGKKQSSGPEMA
CDK3/cyclin E (Homo sapiens), sequence (Q00526 whole entry, looked up): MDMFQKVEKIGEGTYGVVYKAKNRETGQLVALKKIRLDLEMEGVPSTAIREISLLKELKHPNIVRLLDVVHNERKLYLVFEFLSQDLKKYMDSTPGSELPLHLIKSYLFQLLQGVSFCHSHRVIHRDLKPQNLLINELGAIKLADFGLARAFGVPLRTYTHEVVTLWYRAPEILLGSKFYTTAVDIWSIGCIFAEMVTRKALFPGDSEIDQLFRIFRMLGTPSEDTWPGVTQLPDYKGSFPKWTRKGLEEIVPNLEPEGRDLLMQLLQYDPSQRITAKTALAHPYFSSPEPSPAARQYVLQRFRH

SMILES: COc1cc(N(C)c2ccnc3ccc(C(F)(F)F)cc23)cc(OC)c1OC
% binding [4]: 43%

SMILES: COc1cc(Nc2nc(C)cc(-c3cnn4nc(OC)ccc34)n2)cc(C(F)(F)F)c1
IC50 [5]: > 10 µM
% of control [6]: 82%

SMILES: O=C(NOC[C@H](O)CO)c1ccc(F)c(F)c1Nc1ccc(I)cc1F
% of control [7]: 100%

Results, then the molecule that gave them:

% of inhibition [1]: 5%
SMILES: Cc1ccc(-c2ccc3c(ccc4sc5c(c43)NC[C@@H](C)NC5=O)n2)cn1

% of inhibition [2]: 4.23%
SMILES: CC[C@@H]1[C@H](F)C(=O)N[C@@H]1COc1nccc2cc(C(N)=O)c(OC)cc12 [ZIMLOVISERTIB]

dTM [3]: -1.78 K
SMILES: Cc1cc(CN)cc(C)c1-c1ncn(C)c1-c1cncn1C
